Patent US20220117938A1, “COMBINATON THERAPY WITH A DON PRODRUG AND AN IMMUNE CHECKPOINT INHIBITOR” (DRACEN PHARMACEUTICALS, INC., priority 2019, published 2022)

Key:
[1] = system: A549 tumors; test: Anti-tumor efficacy of Compound 1 in the A549 xenograft model (Example 11); format: in vivo, mice
Protocol: Female BALB/c nude mice were inoculated subcutaneously in the right flank with A549 cells for tumor development. Eight days after tumor inoculation, mice with tumor sizes ranging from 100-200 mm^3 (average tumor size 156 mm^3) were selected and assigned into groups using stratified randomization with 8 mice per group based upon their tumor volumes. The treatments were started from the day of randomization (defined as D0), Group 1 was treated with Vehicle control, 10 ml/kg, IP, bid×21; Group 4 was treated with Compound 1; 1.4 mg/kg, SC, 5d ON, 2 d OFF×3 cycles; and Group 5 was treated with Compound 1, 3.3 mg/kg, IV, tiw, (Fri, Sun, Tues), ×3 cycles. The tumor sizes were measured two times per week during the treatment. The entire study was terminated on D21 after start of the treatment. All treatments were well-tolerated without any adverse effects or significant body weight loss.

[2] = system: 4T1 tumors; test: Anti-tumor efficacy of Compound 1 with and without anti-PD-1 in the 4T1 murine mammary cancer model (Example 2A); format: in vivo, Mus musculus; settings: for Tumor volume (mm^3), Mean ± SEM: n = 8; for ILS (%) / MST: endpoint tumor volume 2000 mm^3; for RTV at day 25 / T/C (%) / TGI (%) / Tumor Size (mm^3) at day 25, Mean ± SEM: day 25
Protocol: Female BALB/c mice were inoculated subcutaneously at the mammary fat pat with 4T1 cells for tumor development. Six days after tumor inoculation, 48 mice with tumor size ranging from 49-88 mm^3 (average tumor size 59 mm^3) were selected and assigned into 6 groups using stratified randomization with 8 mice per group based upon their tumor volumes. The treatments were started from the day of randomization (defined as D0), Group 1 was treated with Vehicle (Tween 80:Ethanol:Saline—5:5:90 v/v/v), s.c. q.d.×14, Group 2 was treated with anti-PD-1 10 mg/kg i.p. q4d×4, Group 3 was treated with Compound 1 3 mg/kg s.c. q.d.×5D followed by 1 mg/kg s.c. q.d.×9D, Group 4 was treated with Compound 13 mg/kg s.c. q.d.×5D followed by 1 mg/kg s.c. q.d.×9D+anti-PD-1 10 mg/kg i.p. q4d×4, Group 5 was treated with Compound 11 mg/kg s.c. q.d.×14D and Group 6 was treated with Compound 11 mg/kg s.c. q.d.×14D+anti-PD-1 10 mg/kg i.p. q4d×4. The tumor sizes were measured three times per week during the treatment. The entire study was terminated on D42 after start of the treatment. In this study anti mPD-1 (catalog number BE0146) was used.
Animal Species: Mus musculus; Strain: BALB/c; Age: 6-8 weeks; Sex: female; Body weight (at treatment start): 20-24 g.
The 4T1 tumor cells were maintained in vitro as a monolayer culture in RPMI-1640 medium supplemented with 10% heat inactivated fetal bovine serum and 100 μg/mL penicillin streptomycin at 37° C. in an atmosphere of 5% CO2 in air. The tumor cells were routinely subcultured twice weekly by trypsin-EDTA treatment. The cells growing to a confluency around 70%-80% were harvested and counted for tumor inoculation. The cultured 4T1 cells were harvested, re-suspended in base medium at a density of 2×10^6 cells/mL with viability >90%. Each mouse was inoculated subcutaneously at the […] with 1×10^5 in 0.05 ml base medium for tumor development.
The treatments were started on day 6 after tumor inoculation when the tumor size reached 49-88 mm^3 (average tumor size 59 mm^3). Each group consisted of 8 tumor bearing mice. The testing article was administrated at the dosing volume indicated to the mice according to the predetermined regimen as shown Table 2A-1. Testing article formulations were prepared according to standard procedures. Details regarding tumor measurements and endpoints, and statistical analysis are provided in EXAMPLE 3.
Tumor sizes were measured three times a week in two dimensions using a caliper, and the volume expressed in mm^3 using the formula: V=0.5 a×b^2 where a and b are the long and short diameters of the tumor, respectively. The tumor sizes were then used for the calculations of both tumor growth inhibition (TGI) and T/C values.
TGI is calculated for each group using the formula: […]
TVTreatment_DayN is the average tumor volume of a treatment group on a given day, TVTreatment_Day0 is the average tumor volume of the treatment group on the first day of treatment, TVVehicle_DayN is the average tumor volume of the vehicle control group on a given day, and TVVehicle_Day0 is the average tumor volume of the vehicle group on the first day of treatment.
The T/C value (in percent) is an indication of antitumor effectiveness, T/C (%)=RTVTreatment/RTVControl×100% (RTVTreatment: the mean RTV of the treatment group; RTVControl: the mean RTV of the vehicle treated group). RTV (relative tumor volume)=TVDayN/TVDay0. TVDayN and TVDay0 is the tumor volume on day N and Day 0 respectively. T/C (%)≤42% is considered as significant antitumor activity and <10% is considered as highly significant antitumor activity by the National Cancer Institute criteria.
Animal survival curve: When an individual animal reached to the termination endpoint (TV>2000 mm^3), the mouse was euthanized. The time from treatment initiation to the termination was deemed as its survival time. Survival curve was plotted by Kaplan-Meier method. Median survival time (MST) was calculated for each group. […]

[3] = Group 4, 1.4 mg/kg SC 5 d ON 2 d OFF x3 cycles
[4] = Group 4, 1.4 mg/kg SC 5 d ON 2 d OFF x3 cycles, day 21
[5] = Group 5, 3.3 mg/kg IV tiw x3 cycles
[6] = Group 5, 3.3 mg/kg IV tiw x3 cycles, day 21

CC(=O)N[C@@H](Cc1c[nH]c2ccccc12)C(=O)N[C@@H](CCC(=O)C=[N+]=[N-])C(=O)OC(C)C [Compound 1, Isopropyl (S)-2-((S)-2-acetamido-3-(1H-indol-3-yl)propanamido)-6-diazo-5-oxohexanoate]
RTV at day 21 [1, 3]: 8.61 ± 1.30
Tumor Size at day 21 [1, 3]: 1300 ± 161 mm^3
Tumor volume ([1]; Group 4, 1.4 mg/kg SC 5 d ON 2 d OFF x3 cycles, day 0): 155 ± 10 mm^3
Tumor volume ([1]; Group 4, 1.4 mg/kg SC 5 d ON 2 d OFF x3 cycles, day 4): 187 ± 12 mm^3
Tumor volume ([1]; Group 4, 1.4 mg/kg SC 5 d ON 2 d OFF x3 cycles, day 7): 273 ± 25 mm^3
Tumor volume ([1]; Group 4, 1.4 mg/kg SC 5 d ON 2 d OFF x3 cycles, day 11): 500 ± 59 mm^3
Tumor volume ([1]; Group 4, 1.4 mg/kg SC 5 d ON 2 d OFF x3 cycles, day 14): 658 ± 92 mm^3
Tumor volume ([1]; Group 4, 1.4 mg/kg SC 5 d ON 2 d OFF x3 cycles, day 18): 1050 ± 112 mm^3
T/C [1, 4]: 75.88%
TGI [1, 4]: 28.57%
Tumor volume [1, 4]: 1300 ± 161 mm^3
RTV at day 21 [1, 5]: 9.55 ± 1.16
Tumor Size at day 21 [1, 5]: 1453 ± 171 mm^3
Tumor volume ([1]; Group 5, 3.3 mg/kg IV tiw x3 cycles, day 0): 156 ± 10 mm^3
Tumor volume ([1]; Group 5, 3.3 mg/kg IV tiw x3 cycles, day 4): 180 ± 12 mm^3
Tumor volume ([1]; Group 5, 3.3 mg/kg IV tiw x3 cycles, day 7): 268 ± 21 mm^3
Tumor volume ([1]; Group 5, 3.3 mg/kg IV tiw x3 cycles, day 11): 473 ± 39 mm^3
Tumor volume ([1]; Group 5, 3.3 mg/kg IV tiw x3 cycles, day 14): 647 ± 66 mm^3
Tumor volume ([1]; Group 5, 3.3 mg/kg IV tiw x3 cycles, day 18): 1107 ± 119 mm^3
T/C [1, 6]: 84.12%
TGI [1, 6]: 19.04%
Tumor volume [1, 6]: 1453 ± 171 mm^3
Tumor volume (mm^3), Mean ± SEM ([2]; 1 mg/kg qdx14 s.c., Day 0): 58 ± 3 mm^3
Tumor volume (mm^3), Mean ± SEM ([2]; 1 mg/kg qdx14 s.c., Day 2): 75 ± 4 mm^3
Tumor volume (mm^3), Mean ± SEM ([2]; 1 mg/kg qdx14 s.c., Day 4): 85 ± 4 mm^3
Tumor volume (mm^3), Mean ± SEM ([2]; 1 mg/kg qdx14 s.c., Day 7): 108 ± 4 mm^3
Tumor volume (mm^3), Mean ± SEM ([2]; 1 mg/kg qdx14 s.c., Day 9): 130 ± 10 mm^3
Tumor volume (mm^3), Mean ± SEM ([2]; 1 mg/kg qdx14 s.c., Day 11): 158 ± 12 mm^3
Tumor volume (mm^3), Mean ± SEM ([2]; 1 mg/kg qdx14 s.c., Day 14): 172 ± 11 mm^3
Tumor volume (mm^3), Mean ± SEM ([2]; 1 mg/kg qdx14 s.c., Day 16): 215 ± 17 mm^3
Tumor volume (mm^3), Mean ± SEM ([2]; 1 mg/kg qdx14 s.c., Day 18): 300 ± 23 mm^3
Tumor volume (mm^3), Mean ± SEM ([2]; 1 mg/kg qdx14 s.c., Day 21): 441 ± 31 mm^3
Tumor volume (mm^3), Mean ± SEM ([2]; 1 mg/kg qdx14 s.c., Day 23): 622 ± 44 mm^3
Tumor volume (mm^3), Mean ± SEM ([2]; 1 mg/kg qdx14 s.c., Day 25): 782 ± 53 mm^3
Tumor volume (mm^3), Mean ± SEM ([2]; 3 mg/kg qdx5 then 1 mg/kg qdx9 s.c., Day 0): 59 ± 3 mm^3
Tumor volume (mm^3), Mean ± SEM ([2]; 3 mg/kg qdx5 then 1 mg/kg qdx9 s.c., Day 2): 72 ± 4 mm^3
Tumor volume (mm^3), Mean ± SEM ([2]; 3 mg/kg qdx5 then 1 mg/kg qdx9 s.c., Day 4): 76 ± 3 mm^3
Tumor volume (mm^3), Mean ± SEM ([2]; 3 mg/kg qdx5 then 1 mg/kg qdx9 s.c., Day 7): 80 ± 3 mm^3
Tumor volume (mm^3), Mean ± SEM ([2]; 3 mg/kg qdx5 then 1 mg/kg qdx9 s.c., Day 9): 88 ± 6 mm^3
Tumor volume (mm^3), Mean ± SEM ([2]; 3 mg/kg qdx5 then 1 mg/kg qdx9 s.c., Day 11): 113 ± 9 mm^3
Tumor volume (mm^3), Mean ± SEM ([2]; 3 mg/kg qdx5 then 1 mg/kg qdx9 s.c., Day 14): 171 ± 12 mm^3
Tumor volume (mm^3), Mean ± SEM ([2]; 3 mg/kg qdx5 then 1 mg/kg qdx9 s.c., Day 16): 245 ± 17 mm^3
Tumor volume (mm^3), Mean ± SEM ([2]; 3 mg/kg qdx5 then 1 mg/kg qdx9 s.c., Day 18): 356 ± 27 mm^3
Tumor volume (mm^3), Mean ± SEM ([2]; 3 mg/kg qdx5 then 1 mg/kg qdx9 s.c., Day 21): 565 ± 37 mm^3
Tumor volume (mm^3), Mean ± SEM ([2]; 3 mg/kg qdx5 then 1 mg/kg qdx9 s.c., Day 23): 762 ± 62 mm^3
Tumor volume (mm^3), Mean ± SEM ([2]; 3 mg/kg qdx5 then 1 mg/kg qdx9 s.c., Day 25): 1024 ± 75 mm^3
ILS (%) ([2]; Compound 1 1 mg/kg): 13.8%
MST ([2]; Compound 1 1 mg/kg): 33.0 days
ILS (%) ([2]; Compound 1 3/1 mg/kg): 19.0%
MST ([2]; Compound 1 3/1 mg/kg): 34.5 days
RTV at day 25 ([2]; Cpd. 1 1 mg/kg): 13.65 ± 1.13
T/C (%) ([2]; Cpd. 1 1 mg/kg): 46.10%
TGI (%) ([2]; Cpd. 1 1 mg/kg): 53.9%
Tumor Size (mm^3) at day 25, Mean ± SEM ([2]; Cpd. 1 1 mg/kg): 782 ± 53 mm^3
RTV at day 25 ([2]; Cpd. 1 3/1 mg/kg): 17.45 ± 0.83
T/C (%) ([2]; Cpd. 1 3/1 mg/kg): 58.95%
TGI (%) ([2]; Cpd. 1 3/1 mg/kg): 41.05%
Tumor Size (mm^3) at day 25, Mean ± SEM ([2]; Cpd. 1 3/1 mg/kg): 1024 ± 75 mm^3
